Test results published in the NIST ThermoML archive (doi:10.1016/j.jct.2015.06.014).
Numbers after ± are expanded uncertainties.

Experiment: molar heat capacity at constant pressure
Settings: Liquid, Large sample (1 g) DSC

FC(F)(F)CC(F)(F)F [1,1,1,3,3,3-hexafluoropropane]
molar heat capacity at constant pressure [J/K/mol]
Settings | 1480 kPa | 2490 kPa | 3540 kPa | 4560 kPa | 5410 kPa
315.15 K | 195.67 ± 6.8 | 193.7 ± 6.8 | 192.48 ± 6.7 | 191.42 ± 6.7 | 190.05 ± 6.7
320.15 K | 198.71 ± 7 | 196.59 ± 6.8 | 194.91 ± 6.8 | 193.7 ± 6.8 | 192.78 ± 6.7
325.15 K | 202.06 ± 7.1 | 199.78 ± 7 | 197.95 ± 7 | 196.43 ± 6.8 | 195.67 ± 6.8
330.15 K | 205.71 ± 7.1 | 203.28 ± 7.1 | 201.45 ± 7 | 199.78 ± 7 | 199.02 ± 7
335.15 K | 209.36 ± 7.3 | 207.08 ± 7.3 | 205.1 ± 7.1 | 203.28 ± 7.1 | 202.21 ± 7.1
340.15 K | 213.46 ± 7.4 | 210.73 ± 7.3 | 208.6 ± 7.3 | 206.77 ± 7.3 | 205.56 ± 7.1
345.15 K | 218.02 ± 7.6 | 214.83 ± 7.4 | 212.25 ± 7.4 | 210.27 ± 7.3 | 208.9 ± 7.3
350.15 K | 223.34 ± 7.8 | 219.24 ± 7.6 | 216.35 ± 7.6 | 214.07 ± 7.4 | 212.4 ± 7.4
355.15 K | – | 224.56 ± 7.9 | 221.22 ± 7.8 | 218.33 ± 7.6 | 216.35 ± 7.6
360.15 K | – | 231.1 ± 8.1 | 226.84 ± 7.9 | 223.5 ± 7.8 | 221.06 ± 7.8
365.15 K | – | 239.92 ± 8.4 | 233.53 ± 8.2 | 230.49 ± 8.1 | 227.45 ± 7.9
